Laboratory results reported in PubChem BioAssay (NCI).
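GI50 marks 50% less growth. TGI: concentration producing complete growth inhibition.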

Tests used:
Assay in all cases: NCI-60 cell line screen, 384-well format
SK-MEL-28 melanoma = tested on: SK-MEL-28 melanoma
COLO 205 colon = tested on: COLO 205 colon
NCI-H460 NSCLC = tested on: NCI-H460 NSCLC
NCI-H23 lung = tested on: NCI-H23 lung
SF-268 CNS = tested on: SF-268 CNS
A498 renal = tested on: A498 renal
HOP-92 NSCLC = tested on: HOP-92 NSCLC
SF-539 CNS = tested on: SF-539 CNS
NCI-H522 lung = tested on: NCI-H522 lung
HL-60(TB) leukemia = tested on: HL-60(TB) leukemia
U251 glioblastoma = tested on: U251 glioblastoma
MDA-MB-468 breast = tested on: MDA-MB-468 breast
UO-31 renal = tested on: UO-31 renal
MDA-MB-231 breast = tested on: MDA-MB-231 breast
HCT-15 colon = tested on: HCT-15 colon
OVCAR-8 ovarian = tested on: OVCAR-8 ovarian
SR leukemia = tested on: SR leukemia
SF-295 CNS = tested on: SF-295 CNS
PC-3 prostate = tested on: PC-3 prostate
KM12 colon = tested on: KM12 colon
786-0 renal = tested on: 786-0 renal
BT-549 breast = tested on: BT-549 breast
TK-10 renal = tested on: TK-10 renal
SK-OV-3 ovarian = tested on: SK-OV-3 ovarian
CCRF-CEM leukemia = tested on: CCRF-CEM leukemia
UACC-257 melanoma = tested on: UACC-257 melanoma
UACC-62 melanoma = tested on: UACC-62 melanoma
LOX IMVI melanoma = tested on: LOX IMVI melanoma
SNB-19 CNS = tested on: SNB-19 CNS
HOP-62 NSCLC = tested on: HOP-62 NSCLC
HCC-2998 colon = tested on: HCC-2998 colon
HS 578T breast = tested on: HS 578T breast
SNB-75 CNS = tested on: SNB-75 CNS
M14 melanoma = tested on: M14 melanoma
CAKI-1 renal = tested on: CAKI-1 renal
DU-145 prostate = tested on: DU-145 prostate
EKVX NSCLC = tested on: EKVX NSCLC
SW-620 colon = tested on: SW-620 colon
HCT-116 colon = tested on: HCT-116 colon
RPMI-8226 leukemia = tested on: RPMI-8226 leukemia
SN12C renal = tested on: SN12C renal
OVCAR-4 ovarian = tested on: OVCAR-4 ovarian
HT29 colon = tested on: HT29 colon
T-47D breast = tested on: T-47D breast
MDA-MB-435 melanoma = tested on: MDA-MB-435 melanoma
OVCAR-3 ovarian = tested on: OVCAR-3 ovarian
NCI/ADR-RES ovarian = tested on: NCI/ADR-RES ovarian
NCI-H226 lung = tested on: NCI-H226 lung
MALME-3M melanoma = tested on: MALME-3M melanoma
MCF7 breast = tested on: MCF7 breast
RXF 393 renal = tested on: RXF 393 renal
NCI-H322M lung = tested on: NCI-H322M lung
SK-MEL-5 melanoma = tested on: SK-MEL-5 melanoma
ACHN renal = tested on: ACHN renal
SK-MEL-2 melanoma = tested on: SK-MEL-2 melanoma
MOLT-4 leukemia = tested on: MOLT-4 leukemia
K-562 leukemia = tested on: K-562 leukemia
OVCAR-5 ovarian = tested on: OVCAR-5 ovarian
A549 NSCLC = tested on: A549 NSCLC
IGROV1 ovarian = tested on: IGROV1 ovarian

## COc1cc(Nc2ncc(F)c(Nc3ccc4c(n3)NC(=O)C(C)(C)O4)n2)cc(OC)c1OC
SK-MEL-28 melanoma
  GI50: 43.8 µM
  TGI: > 100 µM
COLO 205 colon
  GI50: 4.34 µM
  TGI: 29.8 µM
NCI-H460 NSCLC
  GI50: 11.3 µM
  TGI: > 100 µM
NCI-H23 lung
  GI50: 0.538 µM
  TGI: > 100 µM
SF-268 CNS
  GI50: 2.55 µM
  TGI: 47.4 µM
A498 renal
  GI50: 20.6 µM
  TGI: > 100 µM
HOP-92 NSCLC
  GI50: 15.4 µM
  TGI: > 100 µM
SF-539 CNS
  GI50: 1.24 µM
  TGI: 17.8 µM
NCI-H522 lung
  GI50: 0.7 µM
  TGI: 13.1 µM
HL-60(TB) leukemia
  GI50: 3.37 µM
  TGI: 8.28 µM
U251 glioblastoma
  GI50: 38.9 µM
  TGI: > 100 µM
MDA-MB-468 breast
  GI50: 5.78 µM
  TGI: > 100 µM
UO-31 renal
  GI50: 55.1 µM
  TGI: > 100 µM
MDA-MB-231 breast
  GI50: 2.58 µM
  TGI: 97 µM
HCT-15 colon
  GI50: 4.36 µM
  TGI: > 100 µM
OVCAR-8 ovarian
  GI50: 4.11 µM
  TGI: 19.7 µM
SR leukemia
  GI50: 1.27 µM
  TGI: 2.72 µM
SF-295 CNS
  GI50: 3.65 µM
  TGI: > 100 µM
PC-3 prostate
  GI50: 8.94 µM
  TGI: > 100 µM
KM12 colon
  GI50: 0.346 µM
  TGI: > 100 µM
786-0 renal
  GI50: 16.3 µM
  TGI: > 100 µM
BT-549 breast
  GI50: 4.37 µM
  TGI: > 100 µM
TK-10 renal
  GI50: > 100 µM
  TGI: > 100 µM
SK-OV-3 ovarian
  GI50: 0.371 µM
  TGI: > 100 µM
CCRF-CEM leukemia
  GI50: 9.52 µM
  TGI: > 100 µM
UACC-257 melanoma
  GI50: > 100 µM
  TGI: > 100 µM
UACC-62 melanoma
  GI50: > 100 µM
  TGI: > 100 µM
LOX IMVI melanoma
  GI50: 6.19 µM
  TGI: > 100 µM
SNB-19 CNS
  GI50: 28.5 µM
  TGI: > 100 µM
HOP-62 NSCLC
  GI50: 5.75 µM
  TGI: 31.7 µM
HCC-2998 colon
  GI50: 14.7 µM
  TGI: > 100 µM
HS 578T breast
  GI50: 0.805 µM
  TGI: 18.4 µM
SNB-75 CNS
  GI50: 1.17 µM
  TGI: 28 µM
M14 melanoma
  GI50: 24.7 µM
  TGI: > 100 µM
CAKI-1 renal
  GI50: 0.445 µM
  TGI: > 100 µM
DU-145 prostate
  GI50: 14.6 µM
  TGI: > 100 µM
EKVX NSCLC
  GI50: 0.808 µM
  TGI: > 100 µM
SW-620 colon
  GI50: > 100 µM
  TGI: > 100 µM
HCT-116 colon
  GI50: > 100 µM
  TGI: > 100 µM
RPMI-8226 leukemia
  GI50: > 100 µM
  TGI: > 100 µM
SN12C renal
  GI50: 0.258 µM
  TGI: > 100 µM
OVCAR-4 ovarian
  GI50: 16.4 µM
  TGI: > 100 µM
HT29 colon
  GI50: 10.6 µM
  TGI: > 100 µM
T-47D breast
  GI50: 52.6 µM
  TGI: > 100 µM
MDA-MB-435 melanoma
  GI50: 9.68 µM
  TGI: > 100 µM
OVCAR-3 ovarian
  GI50: 6.28 µM
  TGI: > 100 µM
NCI/ADR-RES ovarian
  GI50: 13.4 µM
  TGI: > 100 µM
NCI-H226 lung
  GI50: 0.319 µM
  TGI: 13.2 µM
MALME-3M melanoma
  GI50: 29.5 µM
  TGI: > 100 µM
MCF7 breast
  GI50: 3.9 µM
  TGI: > 100 µM
RXF 393 renal
  GI50: 0.516 µM
  TGI: 30.9 µM
NCI-H322M lung
  GI50: 4.17 µM
  TGI: > 100 µM
SK-MEL-5 melanoma
  GI50: 7.41 µM
  TGI: > 100 µM
ACHN renal
  GI50: 1.6 µM
  TGI: > 100 µM

## C[C@@H]1Cc2c([nH]c3ccccc23)[C@@H](c2c(F)cc(NC3CN(CCCF)C3)cc2F)N1CC(F)(F)CO
SK-MEL-28 melanoma
  GI50: 1.6 µM
  TGI: 2.96 µM
COLO 205 colon
  GI50: 2.07 µM
  TGI: 3.56 µM
NCI-H460 NSCLC
  GI50: 1.47 µM
  TGI: 2.86 µM
NCI-H23 lung
  GI50: 5.52 µM
  TGI: 16.9 µM
SF-268 CNS
  GI50: 1.95 µM
  TGI: 4.11 µM
A498 renal
  GI50: 1.45 µM
  TGI: 2.82 µM
SK-MEL-2 melanoma
  GI50: 1.63 µM
  TGI: 2.98 µM
HOP-92 NSCLC
  GI50: 1.79 µM
  TGI: 3.68 µM
SF-539 CNS
  GI50: 1.64 µM
  TGI: 3.25 µM
NCI-H522 lung
  GI50: 2.36 µM
  TGI: 4.63 µM
HL-60(TB) leukemia
  GI50: 1.39 µM
  TGI: 2.69 µM
U251 glioblastoma
  GI50: 1.77 µM
  TGI: 3.32 µM
MDA-MB-468 breast
  GI50: 1.33 µM
  TGI: 2.75 µM
UO-31 renal
  GI50: 1.78 µM
  TGI: 3.81 µM
MDA-MB-231 breast
  GI50: 3.54 µM
  TGI: 12.1 µM
HCT-15 colon
  GI50: 1.95 µM
  TGI: 3.74 µM
MOLT-4 leukemia
  GI50: 1.39 µM
  TGI: 2.68 µM
OVCAR-8 ovarian
  GI50: 2.7 µM
  TGI: 8.09 µM
SR leukemia
  GI50: 1.67 µM
  TGI: 3.03 µM
SF-295 CNS
  GI50: 1.97 µM
  TGI: 3.68 µM
PC-3 prostate
  GI50: 1.84 µM
  TGI: 3.88 µM
KM12 colon
  GI50: 1.73 µM
  TGI: 3.16 µM
786-0 renal
  GI50: 1.82 µM
  TGI: 3.23 µM
BT-549 breast
  GI50: 1.44 µM
  TGI: 2.85 µM
TK-10 renal
  GI50: 1.75 µM
  TGI: 3.26 µM
SK-OV-3 ovarian
  GI50: 1.83 µM
  TGI: 3.91 µM
UACC-257 melanoma
  GI50: 1.56 µM
  TGI: 2.91 µM
UACC-62 melanoma
  GI50: 1.58 µM
  TGI: 2.95 µM
SNB-19 CNS
  GI50: 10.6 µM
  TGI: 22.4 µM
HOP-62 NSCLC
  GI50: 2.37 µM
  TGI: 6.24 µM
HS 578T breast
  GI50: 1.41 µM
  TGI: 2.73 µM
SNB-75 CNS
  GI50: 1.43 µM
  TGI: 3.22 µM
M14 melanoma
  GI50: 1.78 µM
  TGI: 3.17 µM
CAKI-1 renal
  GI50: 1.66 µM
  TGI: 3.25 µM
DU-145 prostate
  GI50: 2.5 µM
  TGI: 6.5 µM
EKVX NSCLC
  GI50: 1.87 µM
  TGI: 6.39 µM
SW-620 colon
  GI50: 1.71 µM
  TGI: 3.12 µM
HCT-116 colon
  GI50: 1.78 µM
  TGI: 3.21 µM
SN12C renal
  GI50: 4.89 µM
  TGI: 16.5 µM
OVCAR-4 ovarian
  GI50: 1.32 µM
  TGI: 4.65 µM
HT29 colon
  GI50: 1.71 µM
  TGI: 3.13 µM
T-47D breast
  GI50: 1.3 µM
  TGI: 2.69 µM
MDA-MB-435 melanoma
  GI50: 1.73 µM
  TGI: 3.11 µM
OVCAR-3 ovarian
  GI50: 1.88 µM
  TGI: 4.05 µM
NCI-H226 lung
  GI50: 2.35 µM
  TGI: 7.78 µM
K-562 leukemia
  GI50: 1.59 µM
  TGI: 2.95 µM
OVCAR-5 ovarian
  GI50: 4.09 µM
  TGI: 15.4 µM
MALME-3M melanoma
  GI50: 1.55 µM
  TGI: 2.89 µM
A549 NSCLC
  GI50: 4.1 µM
  TGI: 14.5 µM
MCF7 breast
  TGI: 1.41 µM
RXF 393 renal
  GI50: 1.34 µM
  TGI: 2.88 µM
NCI-H322M lung
  GI50: 2.81 µM
  TGI: 6.54 µM
SK-MEL-5 melanoma
  GI50: 1.49 µM
  TGI: 2.82 µM
IGROV1 ovarian
  GI50: 1.84 µM
  TGI: 4.33 µM
ACHN renal
  GI50: 1.71 µM
  TGI: 3.16 µM
